What all share (assay type): cell-based
One experiment concerns the target T1, human A1 receptor (Homo sapiens, UniProt P30542).
T1 construct: expressed in transfected cells; host or cells: CHO
T1 sequence (P30542 1-326): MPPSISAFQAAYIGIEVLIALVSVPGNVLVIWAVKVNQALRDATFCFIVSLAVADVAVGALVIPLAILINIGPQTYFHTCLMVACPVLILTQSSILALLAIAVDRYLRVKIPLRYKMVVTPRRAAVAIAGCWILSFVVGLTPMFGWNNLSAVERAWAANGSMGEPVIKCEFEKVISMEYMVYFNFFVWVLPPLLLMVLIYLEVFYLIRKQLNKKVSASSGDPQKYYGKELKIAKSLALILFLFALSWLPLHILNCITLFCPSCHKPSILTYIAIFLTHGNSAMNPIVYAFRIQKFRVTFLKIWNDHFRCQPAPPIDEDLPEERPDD
The experiment in a line: Functional A1 receptor activity, recombinant CHO cells, cAMP (HTRF), forskolin, agonist CPA. How it is done:
(§1) The functional activities of human A2A, A2B, A1 and A3 receptors were determined by quantification of cAMP, being the second messenger for adenosine receptors.
(§2) For human A1 and A3 receptors, recombinant CHO cells, expressing either A1 or A3-receptor, were used. As both receptors couple to Gi proteins, the assay protocol was adapted:
(§3) Cells were seeded into 384-well plates, forskolin, test compounds and agonists (CPA for A1- and IB-MECA for A3-receptor) were added. After 30 min incubation, HTRF reagents (cAMP dynamic 2, Cis Bio) were added and the cellular cAMP levels were determined using the ENVISION (Perkin Elmer) plate reader. Obtained raw data were normalized against the inhibitor control and the neural control (DMSO) and the normalized data were fitted using GeneData software.

For another experiment, the target named is T2, human A2B receptor (Homo sapiens, UniProt P29275).
T2 construct: expressed in transfected cells; host or cells: HEK293
T2 sequence (P29275 1-332): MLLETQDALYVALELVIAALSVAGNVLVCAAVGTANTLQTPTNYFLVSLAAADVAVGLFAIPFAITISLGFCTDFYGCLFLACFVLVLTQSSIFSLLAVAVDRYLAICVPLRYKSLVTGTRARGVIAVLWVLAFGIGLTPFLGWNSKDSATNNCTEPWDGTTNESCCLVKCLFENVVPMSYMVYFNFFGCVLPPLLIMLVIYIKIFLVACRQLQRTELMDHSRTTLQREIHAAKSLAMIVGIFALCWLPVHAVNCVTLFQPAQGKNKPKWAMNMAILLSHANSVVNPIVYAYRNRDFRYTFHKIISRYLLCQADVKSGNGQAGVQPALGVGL
The experiment in a line: Functional A2B receptor activity, recombinant HEK293 cells, cAMP (HTRF), agonist NECA. As for the experimental part:
as §1, §3
A general note: Time-resolved FRET reads energy transfer from a long-lived donor to a nearby acceptor.

The target of a further experiment is T3, human A3 receptor (Homo sapiens, UniProt P0DMS8).
T3 construct: expressed in transfected cells; host or cells: CHO
T3 sequence (P0DMS8 1-318): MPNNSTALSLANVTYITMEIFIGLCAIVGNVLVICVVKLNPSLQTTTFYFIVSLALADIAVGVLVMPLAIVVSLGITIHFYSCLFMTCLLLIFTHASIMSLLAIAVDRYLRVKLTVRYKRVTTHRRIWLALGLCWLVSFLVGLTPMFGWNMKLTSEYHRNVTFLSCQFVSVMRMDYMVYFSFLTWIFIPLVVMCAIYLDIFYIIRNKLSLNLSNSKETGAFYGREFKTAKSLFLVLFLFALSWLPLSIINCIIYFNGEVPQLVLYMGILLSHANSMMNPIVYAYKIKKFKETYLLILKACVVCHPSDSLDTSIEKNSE
The experiment in a line: Functional A3 receptor activity, recombinant CHO cells, cAMP (HTRF), forskolin, agonist IB-MECA. How it is done:
as §1, §2, §3

The target in the next experiment is human A2A receptor (Homo sapiens, UniProt P29274). The experiment in a line: Functional A2A receptor activity, recombinant HEK293 cells, cAMP (HTRF), agonist NECA. Details: expressed in transfected cells; host or cells: HEK293. As for the experimental part:
as §1, §3

Where [1] appears, read: recombinant CHO cells, forskolin, agonist CPA, read-out: Functional A1 receptor activity, CHO, cAMP, IC50.
Where [2] appears, read: read-out: Functional A2B receptor activity, HEK293, cAMP, IC50.
Where [3] appears, read: recombinant CHO cells, forskolin, agonist IB-MECA, read-out: Functional A3 receptor activity, CHO, cAMP, IC50.
Where [4] appears, read: read-out: Functional A2A receptor activity, HEK293, cAMP, IC50.
[5] abbreviates: recombinant CHO cells, forskolin, agonist CPA, cAMP, read-out: Functional A1 receptor activity, CHO, cAMP, IC50.
Setting [6] is: recombinant CHO cells, forskolin, agonist IB-MECA, cAMP, read-out: Functional A3 receptor activity, CHO, cAMP, IC50.

pIC50: −log10 of the molar value. Like-named read-outs stand apart in the source and are kept apart here. Some results are limits rather than exact numbers.

Broadly, the pIC50 is the IC50 on a negative log10 scale, so that one unit is a factor of ten.

Sequence of human A2A receptor (P29274 whole entry): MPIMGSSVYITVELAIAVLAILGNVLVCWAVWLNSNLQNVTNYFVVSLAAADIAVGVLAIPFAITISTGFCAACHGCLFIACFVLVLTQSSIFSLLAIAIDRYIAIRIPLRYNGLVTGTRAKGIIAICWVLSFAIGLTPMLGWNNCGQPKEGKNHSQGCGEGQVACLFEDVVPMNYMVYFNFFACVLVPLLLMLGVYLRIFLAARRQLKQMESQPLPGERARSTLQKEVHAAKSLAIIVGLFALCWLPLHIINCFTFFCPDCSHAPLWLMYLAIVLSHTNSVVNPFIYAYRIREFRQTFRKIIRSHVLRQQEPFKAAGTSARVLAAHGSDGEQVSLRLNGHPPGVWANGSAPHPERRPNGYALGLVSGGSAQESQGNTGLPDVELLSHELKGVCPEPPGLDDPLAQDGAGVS

`COc1ncc(C2=CCOCC2)c2sc(NC(=O)Nc3ccc(NC(=O)CN(C)C)cc3)nc12` [Compound 90, N-[4-({[7-(3,6-dihydro-2H-pyran-4-yl)-4-methoxy-[1,3]thiazolo[4,5-c]pyridin-2-yl]carbamoyl}amino)phenyl]-2-(dimethylamino)acetamide]: the negative-log IC50 (pIC50) at human A1 receptor (setting [1]) is under 6.00; on human A2B receptor (setting [2]) it was over 8.00; on human A3 receptor (setting [3]), under 6.00; at human A2A receptor (setting [4]), over 8.00.

On to `COc1ncc(C2=CCOCC2)c2sc(NC(=O)N3CCC(C(N)=O)CC3)nc12` [Compound 106, N1-[7-(3,6-dihydro-2H-pyran-4-yl)-4-methoxy-[1,3]thiazolo[4,5-c]pyridin-2-yl]piperidine-1,4-dicarboxamide], for which the pIC50 was over 6.00 at human A1 receptor (setting [1]), over 7.00 on human A2B receptor (setting [2]), under 6.00 at human A3 receptor (setting [3]) and over 8.00 on human A2A receptor (setting [4]).

As for `COc1cnc(N2CCOCC2)c2sc(NC(=O)N3CCC4(CCCO4)CC3)nc12` [drawing 189, reference compound], the negative logarithm of the IC50 (pIC50) at human A1 receptor (setting [5]) is under 6.00; on human A2B receptor (setting [2]), over 6.00; on human A3 receptor (setting [6]), under 6.00; at human A2A receptor (setting [4]), over 8.00.

As for `COc1ncc(-c2ccccc2)c2sc(NC(=O)c3ccc(C(=O)O)cc3)nc12` [Compound 109, 4-({4-methoxy-7-phenyl-[1,3]thiazolo[4,5-c]pyridin-2-yl}carbamoyl)benzoic acid], the pIC50 at human A1 receptor (setting [1]) was under 6.00; at human A2B receptor (setting [2]) it was over 8.00; on human A3 receptor (setting [3]) it was under 6.00; on human A2A receptor (setting [4]) it was over 8.00.

Take `COCCNc1ncc(C(=O)Nc2nc3c(OC)ncc(C4=CCOCC4)c3s2)s1` [Compound 81, N-[7-(3,6-dihydro-2H-pyran-4-yl)-4-methoxy-[1,3]thiazolo[4,5-c]pyridin-2-yl]-2-[(2-methoxyethyl)amino]-1,3-thiazole-5-carboxamide]: the pIC50 was over 6.00 on human A1 receptor (setting [1]), over 8.00 on human A2B receptor (setting [2]), under 6.00 at human A3 receptor (setting [3]) and over 8.00 at human A2A receptor (setting [4]).

For `COc1ncc(-c2cccc(NCc3cocn3)c2)c2sc(NC(=O)N3CCC4(CCOCC4)C3)nc12` [Compound 166, 8-Oxa-2-aza-spiro[4.5]decane-2-carboxylic acid (4-methoxy-7-{3-[(oxazol-4-ylmethyl)-amino]-phenyl}-thiazolo[4,5-c]pyridin-2-yl)-amide], the pIC50 at human A1 receptor (setting [1]) was under 6.00; on human A2B receptor (setting [2]) it was over 7.00; on human A3 receptor (setting [3]), under 6.00; on human A2A receptor (setting [4]) it was over 8.00.

As to `O=C(Nc1nc2c(OC(F)F)ncc(-c3ccccc3)c2s1)N1CCC2(CCOCC2)C1` [Compound 80, 8-Oxa-2-aza-spiro[4.5]decane-2-carboxylic acid (4-difluoromethoxy-7-phenyl-thiazolo[4,5-c]pyridin-2-yl)-amide], the negative-log IC50 (pIC50) on human A1 receptor (setting [1]) was under 6.00; on human A2B receptor (setting [2]), over 7.00; on human A3 receptor (setting [3]), under 6.00; on human A2A receptor (setting [4]), over 8.00.

In the case of `COc1ncc(C2=CCOCC2)c2sc(NC(=O)c3ccc(C(=O)N4CCC(C)(O)CC4)cc3)nc12` [Compound 129, N-[7-(3,6-Dihydro-2H-pyran-4-yl)-4-methoxy-thiazolo[4,5-c]pyridin-2-yl]-4-(4-hydroxy-4-methyl-piperidine-1-carbonyl)-benzamide], the negative-log IC50 (pIC50) was over 6.00 on human A1 receptor (setting [1]), over 7.00 on human A2B receptor (setting [2]), under 6.00 at human A3 receptor (setting [3]) and over 8.00 at human A2A receptor (setting [4]).

Take `COc1ncc(C2=CC(=O)CC2)c2sc(NC(=O)N3CCC4(CCOCC4)C3)nc12` [Compound 40, 8-Oxa-2-aza-spiro[4.5]decane-2-carboxylic acid [4-methoxy-7-(3-oxo-cyclopent-1-enyl)-thiazolo[4,5-c]pyridin-2-yl]-amide]: the pIC50 on human A1 receptor (setting [1]) is under 6.00; on human A2B receptor (setting [2]) it was over 7.00; on human A3 receptor (setting [3]) it was under 6.00; on human A2A receptor (setting [4]), over 7.00.

`COc1ccc(-c2ccccc2)c2sc(NC(=O)NCCN3CCCCC3)nc12` [drawing 187, reference compound]: the pIC50 at human A1 receptor (setting [5]) is under 6.00; on human A2B receptor (setting [2]), under 6.00; at human A3 receptor (setting [6]), under 6.00; on human A2A receptor (setting [4]), over 7.00.

Take `COc1ccc(N2CCOCC2)c2sc(NC(=O)N3CCCCC3)nc12` [drawing 191, reference compound]: the pIC50 is under 6.00 at human A1 receptor (setting [5]), over 6.00 at human A2B receptor (setting [2]), over 6.00 on human A3 receptor (setting [6]) and over 8.00 on human A2A receptor (setting [4]).

With `COc1ccc(C2CCOCC2)c2sc(NC(=O)N3CCC4(CC3)OCCO4)nc12` [reference compound], the pIC50 on human A1 receptor was under 6.00; on human A2B receptor, over 6.00; at human A3 receptor, under 6.00; on human A2A receptor, over 8.00.

In the case of `COc1ncc(-c2ccnc(N)c2)c2sc(NC(=O)N3CCC4(CCOCC4)C3)nc12` [Compound 124, 8-Oxa-2-aza-spiro[4.5]decane-2-carboxylic acid [7-(2-amino-pyridin-4-yl)-4-methoxy-thiazolo[4,5-c]pyridin-2-yl]-amide], the pIC50 at human A1 receptor (setting [1]) was under 6.00; at human A2B receptor (setting [2]), over 8.00; on human A3 receptor (setting [3]), under 6.00; on human A2A receptor (setting [4]), over 8.00.

As for `COCCn1cc(C(=O)Nc2nc3c(OC)nc(F)c(C4CCOCC4)c3s2)cn1` [Compound 22, N-[6-fluoro-4-methoxy-7-(oxan-4-yl)-[1,3]thiazolo[4,5-c]pyridin-2-yl]-1-(2-methoxyethyl)-1H-pyrazole-4-carboxamide], the pIC50 on human A1 receptor (setting [1]) is over 6.00; at human A2B receptor (setting [2]), over 8.00; at human A3 receptor (setting [3]), over 6.00; at human A2A receptor (setting [4]) it was over 8.00.

For `COc1ncc(C2=CCOCC2)c2sc(NC(=O)c3c[nH]c(-c4ccccn4)n3)nc12` [Compound 162, 2-Pyridin-2-yl-1H-imidazole-4-carboxylic acid [7-(3,6-dihydro-2H-pyran-4-yl)-4-methoxy-thiazolo[4,5-c]pyridin-2-yl]-amide], the negative-log IC50 (pIC50) on human A1 receptor (setting [1]) was over 6.00; on human A2B receptor (setting [2]) it was over 8.00; on human A3 receptor (setting [3]), under 6.00; at human A2A receptor (setting [4]), over 8.00.

Consider `COc1ncc(-c2ccc3cc[nH]c3c2)c2sc(NC(=O)N3CCC4(CCOCC4)C3)nc12` [Compound 9, N-[7-(1H-indol-6-yl)-4-methoxy-[1,3]thiazolo[4,5-c]pyridin-2-yl]-8-oxa-2-azaspiro[4.5]decane-2-carboxamide], for which the pIC50 on human A1 receptor (setting [1]) was under 6.00; at human A2B receptor (setting [2]) it was over 7.00; on human A3 receptor (setting [3]) it was under 6.00; on human A2A receptor (setting [4]) it was over 8.00.

As for `COc1ncc(-c2ccccc2)c2sc(NC(=O)c3ccc(-c4nnn[nH]4)cc3)nc12` [Compound 110, N-{4-methoxy-7-phenyl-[1,3]thiazolo[4,5-c]pyridin-2-yl}-4-(1H-1,2,3,4-tetrazol-5-yl)benzamide], the negative-log IC50 (pIC50) at human A1 receptor (setting [1]) is under 6.00; on human A2B receptor (setting [2]) it was over 7.00; at human A3 receptor (setting [3]), under 6.00; at human A2A receptor (setting [4]) it was over 8.00.

Regarding `COc1ncc(C2=CCOCC2)c2sc(NC(=O)N3CC[C@@]4(CCCNC4)C3)nc12` [Compound 121, (R)-2,7-Diaza-spiro[4.5]decane-2-carboxylic acid [7-(3,6-dihydro-2H-pyran-4-yl)-4-methoxy-thiazolo[4,5-c]pyridin-2-yl]-amide], the negative logarithm of the IC50 (pIC50) on human A1 receptor (setting [1]) is under 6.00; on human A2B receptor (setting [2]), over 7.00; on human A3 receptor (setting [3]) it was under 6.00; at human A2A receptor (setting [4]), over 8.00.

The values above are taken from US12344623B2, “Thiazolopyridine derivatives as adenosine receptor antagonists” (Merck Patent GmbH, priority 2019, dated 2025).
